{
  "source": "patent US6340703B1",
  "about": "“Treatment or prevention of osteoporosis” (Novogen, Inc., priority 1997, dated 2002)",
  "key": {"[1]": {"system": "estrogen receptors", "details": "relative to 17p-estradiol 100; cited from earlier work"}, "[2]": {"system": "bone resorption", "details": "Tobe et al 1997; cited from earlier work"}, "[3]": {"system": "post-menopausal women", "test": "Greene Score for menopausal symptoms, 3 month study (Example 4)", "format": "in vivo, human", "details": "15 mg or 60 mg daily for 3 months, compared to placebo control group", "protocol": "A group of 36 post-menopausal women experiencing menopausal symptoms were treated with a composition containing either 15 mg daidzein or 60 mg daidzein administered on a daily basis for 3 months."}, "[4]": {"system": "post-menopausal women", "test": "bone density and bone turnover markers in high risk group for osteoporosis (Example 6)", "format": "in vivo, human", "details": "60 mg daily for three months, preliminary results", "protocol": "A similar study involving 10 post-menopausal women in a high risk group for osteoporosis were also administered 60 mg formononetin daily for three months."}, "[5]": {"test": "pharmacokinetic study of formononetin following oral administration", "format": "in vivo", "details": "blood; human, oral 9.3 mg formononetin; read-out: half life in the blood stream (converted)", "protocol": "A pharmacokinetic study involving 16 human patients aged between 18 and 40 was conducted, to determine the pharmacokinetics of formononetin following oral administration. Each patient was orally administered 9.3 mg of formononetin with 200 ml of purified water and maintained a low isoflavone diet for one week prior to, and during the study. Blood samples were taken at 0, 0.25, 0.5, 0.75, 1.0, 1.5, 2.0, 2.5, 3, 4, 5, 6, 8, 10 and 12 and 24 hours post administration, and analysed for formononetin concentration."}, "[6]": {"system": "post-menopausal women", "test": "six month double-blind placebo-controlled study of bone density and bone resorption markers (Example 7)", "format": "in vivo, human", "details": "25 mg, 50 mg or 75 mg daily, six months, with 1200 mg calcium per day", "protocol": "The second study (double-blind, placebo-controlled) involved a six month study of the effects of phytoestrogen formononetin on bone resorption markers in twenty post-menopausal women. The aim of the study was to evaluate the efficacy of a defined daily quantity of isoflavone at 25 mg, 50 mg or 75 mg on bone resorption makers in post menopausal women and compare these to normal controls The effects of isoflavones on endometrial thickness, circulatory lipids and coagulation factors were also evaluated. Subjects were also given supplemental calcium in a dose of 1200 mg per day."}, "[7]": {"system": "post-menopausal women", "test": "Greene Score for menopausal symptoms, 60 mg formononetin (Example 6)", "format": "in vivo, human", "details": "60 mg daily for three months, relative to a control group", "protocol": "15 post-menopausal women who are experiencing menopausal systems are each administered 60 mg formononetin daily for three months."}, "[8]": {"system": "endometrial cancer cells", "details": "Markiewicz et al 1993; potentiated cancer cell growth; cited from earlier work"}},
  "data": [
    {"compound": "COc1ccc(-c2coc3cc(O)cc(O)c3c2=O)cc1", "note": "[biochanin, reference compound]", "values": [
      {"measurement": "relative estrogenicity", "setting": "[1]", "result": 0.07}
    ]},
    {"compound": "O=c1c(-c2ccc(O)cc2)coc2cc(O)ccc12", "note": "[daidzein, 7,4-dihydroxy isoflavone]", "values": [
      {"measurement": "relative estrogenicity", "setting": "[1]", "result": 0.09},
      {"measurement": "effect on bone resorption", "setting": "[2]", "result": "stimulates bone resorption"},
      {"measurement": "Greene Score for menopausal symptoms", "setting": "[3]", "result": "significant decrease"}
    ]},
    {"compound": "COc1ccc(-c2coc3cc(O)ccc3c2=O)cc1", "note": "[formononetin]", "values": [
      {"measurement": "relative estrogenicity", "setting": "[1]", "result": 0.01},
      {"measurement": "protection against osteoporosis by bone density and bone turnover markers", "setting": "[4]", "result": "protection against osteoporosis"},
      {"measurement": "half-life", "setting": "[5]", "result": "~20", "unit": "h"},
      {"measurement": "Greene Score for menopausal symptoms", "setting": "[3]", "result": "significant decrease"},
      {"measurement": "bone density at three sites of the forearm", "setting": "[6]", "result": "significant improvement in bone density"},
      {"measurement": "Greene Score for menopausal symptoms", "setting": "[7]", "result": "significant decrease"}
    ]},
    {"compound": "O=c1c(-c2ccc(O)cc2)coc2cc(O)cc(O)c12", "note": "[genistein]", "values": [
      {"measurement": "estrogen effect on endometrial cancer cells", "setting": "[8]", "result": "exhibited an estrogen effect on endometrial cancer cells"}
    ]}
  ]
}
